The values below come from patent publication US12612424B2, “HPK1 inhibitors and uses thereof” (Regor Pharmaceuticals, Inc., priority 2019, dated 2026).

For test [1], the target named is HPK1 (Homo sapiens, UniProt Q92918). The test is described as follows: HPK1 biochemical assay (ADP-GLO Kinase Assay). The following applies: B*: testing performed in a first testing facility; read-out: HPK1 IC50 (nM) Relative, B*. The procedure, abridged:
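HPK1 (0.6 ng/μL final) activity was followed with MBP substrate and 10 μM ATP in Tris pH 7.5/MgCl2/BSA/DTT buffer, measured by ADP-Glo luminescence. Compounds were tested as 3-fold dilutions from 10 μM. IC50 came from a three-parameter logistic fit, with inhibition normalised to high/low controls.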

Test [2] addresses T1, JAK3 (Homo sapiens, UniProt P52333).
T1 construct: purchased Thermo fisher PV3855
In words: JAK3 biochemical assay (ADP-GLO Kinase Assay). As to conditions: for IC50: B*: testing performed in a first testing facility, read-out: JAK3 IC50 (nM) Relative, B*; for JAKs/HPK1 IC50 Ratio, B*: ratio of JAK3 IC50 to HPK1 IC50, first testing facility. The procedure, abridged: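 Human JAK3 (0.78 ng) with 0.2 μg/μL Poly(E4Y1) and 4 μM ATP in 40 mM Tris pH 7.5, 20 mM MgCl2, 0.1 mg/ml BSA, 50 μM DTT, 1% DMSO; 60 min at 25 °C. ADP formed read by ADP-Glo luminescence. 10-dose 3-fold series from 10 μM; IC50 by three-parameter logistic fit.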

Chain of HPK1 (Q92918 whole entry): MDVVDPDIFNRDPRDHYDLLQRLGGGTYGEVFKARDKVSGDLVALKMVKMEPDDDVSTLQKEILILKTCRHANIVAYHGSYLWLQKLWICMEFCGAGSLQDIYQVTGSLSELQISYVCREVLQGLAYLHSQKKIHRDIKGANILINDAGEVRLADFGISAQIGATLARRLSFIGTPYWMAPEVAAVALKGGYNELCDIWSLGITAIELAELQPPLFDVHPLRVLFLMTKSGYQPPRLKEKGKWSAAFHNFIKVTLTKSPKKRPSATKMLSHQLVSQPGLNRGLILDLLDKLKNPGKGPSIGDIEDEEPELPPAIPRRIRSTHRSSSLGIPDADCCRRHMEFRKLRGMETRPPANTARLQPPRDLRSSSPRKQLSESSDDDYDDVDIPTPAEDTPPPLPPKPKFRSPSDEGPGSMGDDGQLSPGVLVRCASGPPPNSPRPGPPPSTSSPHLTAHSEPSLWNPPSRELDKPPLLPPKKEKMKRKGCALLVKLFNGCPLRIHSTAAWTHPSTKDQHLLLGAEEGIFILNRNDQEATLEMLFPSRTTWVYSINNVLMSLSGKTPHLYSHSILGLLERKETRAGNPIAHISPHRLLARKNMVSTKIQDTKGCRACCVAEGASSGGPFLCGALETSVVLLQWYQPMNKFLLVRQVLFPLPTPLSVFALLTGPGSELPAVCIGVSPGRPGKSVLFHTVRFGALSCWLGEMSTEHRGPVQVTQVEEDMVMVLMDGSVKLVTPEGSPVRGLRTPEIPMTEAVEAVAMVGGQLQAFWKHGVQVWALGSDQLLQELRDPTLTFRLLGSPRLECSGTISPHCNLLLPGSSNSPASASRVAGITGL
T1 sequence (P52333 781-1124 limits assumed): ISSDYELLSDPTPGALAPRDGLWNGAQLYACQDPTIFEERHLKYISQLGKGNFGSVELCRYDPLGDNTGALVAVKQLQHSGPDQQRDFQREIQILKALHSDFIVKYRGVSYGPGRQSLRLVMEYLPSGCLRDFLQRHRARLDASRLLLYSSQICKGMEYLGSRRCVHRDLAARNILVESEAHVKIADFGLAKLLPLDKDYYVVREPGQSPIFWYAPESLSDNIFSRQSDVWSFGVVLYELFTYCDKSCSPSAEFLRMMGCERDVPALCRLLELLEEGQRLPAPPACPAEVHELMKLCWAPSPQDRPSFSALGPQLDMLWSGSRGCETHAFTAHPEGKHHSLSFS

As for `COc1cc2c(cc1Nc1ncc(Cl)c(N3CC(C)(CC(=O)O)c4ccccc43)n1)CN(C)CC2` (single isomer, unassigned) [Example 148], the IC50 in test [1] is at most 100 nM. In addition, in test [2], the IC50 is at most 100 nM and the “JAKs/HPK1 IC50 Ratio, B*” value was determined as 209.

Take `COc1cc2c(cc1Nc1ncc(Cl)c(-n3cc(CC(=O)O)c4cc(F)ccc43)n1)CN(C)CC2` [Example 138]: the IC50 in test [1] was at most 100 nM. Moreover, in test [2], the IC50 fell in the range of 100 to 500 nM and the “JAKs/HPK1 IC50 Ratio, B*” value came out at 382.

Take `COc1cc2c(cc1Nc1ncc(Cl)c(N3CC(C(=O)O)c4ccc(F)cc43)n1)CN(C)CC2` (stereo not shown) [Example 105]: the IC50 in test [1] is at most 100 nM. Further, in test [2], the IC50 lay within 100 to 500 nM and the “JAKs/HPK1 IC50 Ratio, B*” value is on record as 140.

As for `COc1cc2c(cc1Nc1ncc(Cl)c(-c3cn(CC(=O)O)c4ccccc34)n1)CN(C)CC2` [Example 161], the IC50 in test [1] is at most 100 nM. Moreover, in test [2], the IC50 lay in the range of 500 to 1000 nM and the “JAKs/HPK1 IC50 Ratio, B*” value is 510.

Turning to `COC(=O)C1CN(c2nc(Nc3cc4c(cc3OC)CCN(C)C4)ncc2Cl)c2ccccc21` (stereo not shown) [Example 115, Methyl 1-(5-chloro-2-((6-methoxy-2-methyl-1,2,3,4-tetrahydroisoquinolin-7-yl)amino)pyrimidin-4-yl)indoline-3-carboxylate], the IC50 in test [1] is at most 100 nM. In test [2], the IC50 is above 1000 nM and the “JAKs/HPK1 IC50 Ratio, B*” value worked out at 1275.

For `COc1cc2c(cc1Nc1ncc(Cl)c(-n3nc(C(=O)O)c4ccccc43)n1)CN(C)CC2` [Example 113], the IC50 in test [1] is at most 100 nM. In test [2], the IC50 was above 1000 nM and the “JAKs/HPK1 IC50 Ratio, B*” value is 293.

Consider `COc1cc2c(cc1Nc1ncc(Cl)c(N3CC(C)(CC(=O)O)c4ccccc43)n1)CN(C)C2` (stereo not shown) [Example 159, 2-(1-(5-Chloro-2-((6-methoxy-2-methylisoindolin-5-yl)amino)pyrimidin-4-yl)-3-methylindolin-3-yl)acetic acid], for which the IC50 in test [1] is at most 100 nM. In addition, in test [2], the IC50 is at most 100 nM and the “JAKs/HPK1 IC50 Ratio, B*” value stood at 71.

Turning to `COc1cc2c(cc1Nc1ncc(Cl)c(N3CC(C(=O)O)c4cc(F)ccc43)n1)CN(C)CC2` (stereo not shown) [Example 104], the IC50 in test [1] was at most 100 nM. In addition, in test [2], the IC50 is at most 100 nM and the “JAKs/HPK1 IC50 Ratio, B*” value is on record as 45.

`COc1cc2c(cc1Nc1ncc3cc(C#N)n(-c4ccccc4)c3n1)CN(C)CC2` [Example 164, 2-((6-Methoxy-2-methyl-1,2,3,4-tetrahydroisoquinolin-7-yl)amino)-7-phenyl-7H-pyrrolo[2,3-d]pyrimidine-6-carbonitrile]: the IC50 in test [1] was at most 100 nM. Besides, in test [2], the IC50 was in the range of 500 to 1000 nM and the “JAKs/HPK1 IC50 Ratio, B*” value is reported as 306.

With `COc1cc2c(cc1Nc1nccc(N3CC(C(=O)O)c4ccccc43)n1)CN(C)CC2` (stereo not shown) [Example 163, 1-(2-((6-Methoxy-2-methyl-1,2,3,4-tetrahydroisoquinolin-7-yl)amino)pyrimidin-4-yl)indoline-3-carboxylic acid], the IC50 in test [1] was at most 100 nM; in test [2], above 1000 nM. In addition, the “JAKs/HPK1 IC50 Ratio, B*” value in test [2] was determined as 456.

Take `COc1cc2c(cc1Nc1ncc(Cl)c(-c3nn(CC(=O)O)c4ccccc34)n1)CN(C)CC2` [Example 162, 2-(3-(5-Chloro-2-((6-methoxy-2-methyl-1,2,3,4-tetrahydroisoquinolin-7-yl)amino)pyrimidin-4-yl)-1H-indazol-1-yl)acetic acid]: the IC50 in test [1] was at most 100 nM. In test [2], the IC50 is above 1000 nM and the “JAKs/HPK1 IC50 Ratio, B*” value amounted to 415.

On to `COc1cc2c(cc1Nc1ncc(Cl)c(N3CC(C(=O)O)c4c(OC)cccc43)n1)CN(C)CC2` (stereo not shown) [Example 108, 1-(5-Chloro-2-((6-methoxy-2-methyl-1,2,3,4-tetrahydroisoquinolin-7-yl)amino)pyrimidin-4-yl)-4-methoxyindoline-3-carboxylic acid], for which, in test [1], the IC50 is at most 100 nM. In addition, in test [2], the IC50 is above 1000 nM and the “JAKs/HPK1 IC50 Ratio, B*” value is reported as 886.

With `COc1cc2c(cc1Nc1ncc(Cl)c(-n3nc(CC(=O)O)c4ccccc43)n1)CN(C)CC2` [Example 141], the IC50 in test [1] was at most 100 nM. Besides, in test [2], the IC50 is above 1000 nM and the “JAKs/HPK1 IC50 Ratio, B*” value is on record as 541.

As to `COc1cc2c(cc1Nc1ncc(Cl)c(N3CC(C)(CC(=O)O)c4ccc(F)cc43)n1)CN(C)CC2` (single isomer, unassigned) [Example 152], the IC50 in test [1] is at most 100 nM; in test [2], 100 to 500 nM. Also, the “JAKs/HPK1 IC50 Ratio, B*” value in test [2] came out at 253.

As to `COc1cc2c(cc1Nc1ncc(Cl)c(-n3cc(S(N)(=O)=O)c4ccccc43)n1)CN(C)CC2` [Example 83, 1-(5-Chloro-2-((6-methoxy-2-methyl-1,2,3,4-tetrahydroisoquinolin-7-yl)amino)pyrimidin-4-yl)-1H-indole-3-sulfonamide], the IC50 in test [1] is at most 100 nM. Also, in test [2], the IC50 is above 1000 nM and the “JAKs/HPK1 IC50 Ratio, B*” value is given as 232.

In the case of `COc1cc2c(cc1Nc1ncc(Cl)c(N3CC(C)(CC(=O)O)c4ccccc43)n1)CN(C)CC2` (single isomer, unassigned) [Example 147], the IC50 in test [1] was at most 100 nM; in test [2], above 1000 nM. Also, the “JAKs/HPK1 IC50 Ratio, B*” value in test [2] was 132.

Take `COc1cc2c(cc1Nc1ncc(Cl)c(N3CC(CO)c4ccccc43)n1)CN(C)CC2` (stereo not shown) [Example 87]: the IC50 in test [1] is at most 100 nM; in test [2], 100 to 500 nM.

For the compound `COc1cc2c(cc1Nc1ncc(Cl)c(N3CC(S(C)(=O)=O)c4ccccc43)n1)CN(C)CC2` (stereo not shown) [Example 81, N-(5-chloro-4-(3-(methylsulfonyl)indolin-1-yl)pyrimidin-2-yl)-6-methoxy-2-methyl-1,2,3,4-tetrahydroisoquinolin-7-amine], the IC50 is at most 100 nM in test [1] and 500 to 1000 nM in test [2]. Moreover, the “JAKs/HPK1 IC50 Ratio, B*” value in test [2] worked out at 444.

Regarding `COc1cc2c(cc1Nc1ncc(Cl)c(N3CCc4cc(P(C)(C)=O)ccc43)n1)CN(C)CC2` [Example 86], the IC50 in test [1] is at most 100 nM; in test [2] it was above 1000 nM. For the same compound, the “JAKs/HPK1 IC50 Ratio, B*” value in test [2] was determined as 67.

Take `COC(=O)CC1(C)CN(c2nc(Nc3cc4c(cc3OC)CCN(C)C4)ncc2Cl)c2ccccc21` (stereo not shown) [Example 145]: in test [1], the half-inhibitory concentration (IC50) was at most 100 nM. Further, in test [2], the half-maximal inhibitory concentration (IC50) is above 1000 nM and the “JAKs/HPK1 IC50 Ratio, B*” value is given as 476.

For the compound `COc1cc2c(cc1Nc1ncc(Cl)c(N3CC(C)(C(N)=O)c4ccccc43)n1)CN(C)CC2` (stereo not shown) [Example 120, 1-(5-Chloro-2-((6-methoxy-2-methyl-1,2,3,4-tetrahydroisoquinolin-7-yl)amino)pyrimidin-4-yl)-3-methylindoline-3-carboxamide], the IC50 in test [1] is at most 100 nM. In test [2], the IC50 was at most 100 nM and the “JAKs/HPK1 IC50 Ratio, B*” value amounted to 120.

On to `COc1cc2c(cc1Nc1ncc(Cl)c(N3CC(CC(=O)O)c4ccccc43)n1)CN(C)CC2` (stereo not shown) [Example 128], for which the IC50 is at most 100 nM in test [1] and 100 to 500 nM in test [2]. Further, the “JAKs/HPK1 IC50 Ratio, B*” value in test [2] is 280.

As for `COc1cc2c(cc1Nc1ncc(Cl)c(N3CC4(CC4)c4ccccc43)n1)CN(C)CC2` [Example 84, N-(5-chloro-4-(spiro[cyclopropane-1,3′-indolin]-1′-yl)pyrimidin-2-yl)-6-methoxy-2-methyl-1,2,3,4-tetrahydroisoquinolin-7-amine], the IC50 was at most 100 nM in test [1] and 100 to 500 nM in test [2].
